Legend:
LecA-treated H1299 cells = test: Scratch-wound healing assay; assay type: cell-based, human; conditions: 3.9 μM LecA; for Wound closure after 24 h: 100 μM inhibitor
Source text: The opportunistic bacterium P. aeruginosa depends on favorable circumstances to infect the host, such as a suppressed immunity or wounded skin.[34, 35] Chronic infection of wounds with P. aeruginosa increases the risk of nosocomial spread, are difficult to treat and after systemic dissemination can result in a fatal outcome in patients. In a previous study, we investigated the effect of the fucose‐binding P. aeruginosa lectin LecB on epithelial wound healing.[36] […] Here, we investigated whether LecA also impairs the same physiological process. To this end, H1299 cell monolayers were grown, and after scratching with a pipette tip, wound closure was monitored microscopically (Figure 5a). […] The mode of action of LecA in the wound healing process remains elusive. […] Importantly, when LecA was added to the cells together with L2 (10 μM and 100 μM, respectively), the wound healed at a similar rate to the control in absence of LecA. Remarkably, in presence of 10 μM L2, cell migration was restored to about 70 % compared to the negative control, and the wound closed by 80 % after 24 h of incubation with 100 μM L2 (Figure 5b). […]
using NIS-Element Confocal 4.20 from Nikon and ImageJ 1.52a from Laboratory for Optical and Computational Instrumentation.
Cell proliferation (MTT) assay […]
Subsequently, 10 μL of MTT labelling solution was added to each well and the cells were incubated for another 4 h at 37 °C. […] The next day, the absorbance of the samples was measured at 550 nm using a BioTek microplate reader (BioTek Instruments Inc., Winooski, VT, USA). The data were analyzed using Microsoft Excel and GraphPad Prism […]
2 x 10^5 cells were seeded on 12-well plates and formed a confluent monolayer after 24 h. […] The samples were imaged with an EVOS microscope (PEQLAB by VWR Life Sciences, Avantor Performance Materials Inc., Center Valley, PA, USA) and analyzed with ImageJ and Microsoft Excel. […] Experiment was repeated independently three times (N = 3) and evaluated with two tailed, […]

H1299 cells = test: Cell proliferation (MTT) cytotoxicity assay; assay type: cell-based, human; conditions: 24 h; for Cytotoxicity on H1299 cells: 10–100 μM; for Inhibition of cell proliferation: 500 and 750 μM
Procedure: Additionally, the cytotoxicity of sulfonated ligands K2 and L2 on H1299 cells was evaluated prior to the invasion assay (Figure S12). […]
Cell proliferation (MTT) assay
The MTT assay (MTT Cell Proliferation Kit, Roche Holding AG, Basel, Switzerland) was used to evaluate the cytotoxicity of inhibitors on H1299 cells. 3.5 x 10^4 cells per well were transferred to a 96-well plate with a U-bottom. The cells were centrifuged at 1600 x g for 3 min at room temperature. The cell pellet was resuspended in 100 μL of inhibitor solutions (1–750 µM) and transferred to a 96-well flat-bottomed plate. The cells were incubated for 24 h at 37 °C.
Subsequently, 10 μL of MTT labelling solution was added to each well and the cells were incubated for another 4 h at 37 °C. Afterwards, 100 μL of the kit solubilization reagent were added to each well and the plate was incubated at 37 °C overnight. The next day, the absorbance of the samples was measured at 550 nm using a BioTek microplate reader (BioTek Instruments

## Cc1ccc(NC(=O)CCc2ccc(O[C@@H]3O[C@H](CO)[C@H](O)[C@H](O)[C@H]3O)cc2)cc1S(=O)(=O)O [Compound K2]
LecA-treated H1299 cells
  Wound closure after 24 h: about 50%
H1299 cells
  Cytotoxicity on H1299 cells: did not exhibit significant toxicity
  Inhibition of cell proliferation: > 50%

## O=C(CCc1ccc(O[C@@H]2O[C@H](CO)[C@H](O)[C@H](O)[C@H]2O)cc1)Nc1ccc(CCc2ccc(NC(=O)CCc3ccc(O[C@@H]4O[C@H](CO)[C@H](O)[C@H](O)[C@H]4O)cc3)cc2S(=O)(=O)O)c(S(=O)(=O)O)c1 [Compound L2]
LecA-treated H1299 cells; 10 μM inhibitor
  Cell migration / wound closure restored after 24 h: about 70%
LecA-treated H1299 cells
  Wound closure after 24 h: 80%
H1299 cells
  Cytotoxicity on H1299 cells: did not exhibit significant toxicity
  Inhibition of cell proliferation: > 50%
